Laboratory results reported in patent EP4467141A1, “PYRAZOLO-QUINOLINES AS SELECTIVE INHIBITORS OF GENOTOXIC STRESS-INDUCED IKK/NF- KB PATHWAYS FOR CANCER THERAPY” (Max-Delbrück-Centrum für Molekulare Medizin in der …, priority 2023, dated 2024).

Tests used:
Experiment in all cases: Kinase panel study
Format in all cases: biochemical
Conditions in all cases: read-out: Percentage of inhibition; for inhibition at 1 µM: 1000nM; for inhibition at 10 µM: 10000nM
FYN = target: T1, FYN (Homo sapiens, UniProt P06241)
T1 construct: purchased Thermo Fisher Scientific
Summary of the method: (§1)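 ZLyte/Adapta biochemical kinase assays, standard operating procedures; % inhibition at 1 µM or 10 µM test compound; IC50 determined in panel.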

RPS6KA3 (RSK2) = target: T2, RPS6KA3 (RSK2) (Homo sapiens, UniProt P51812)
T2 construct: purchased Thermo Fisher Scientific
Summary of the method: as §1

PRKCZ (PKC zeta) = target: T3, PRKCZ (PKC zeta) (Homo sapiens, UniProt Q05513)
T3 construct: purchased Thermo Fisher Scientific
T3 sequence (Q05513 1-592): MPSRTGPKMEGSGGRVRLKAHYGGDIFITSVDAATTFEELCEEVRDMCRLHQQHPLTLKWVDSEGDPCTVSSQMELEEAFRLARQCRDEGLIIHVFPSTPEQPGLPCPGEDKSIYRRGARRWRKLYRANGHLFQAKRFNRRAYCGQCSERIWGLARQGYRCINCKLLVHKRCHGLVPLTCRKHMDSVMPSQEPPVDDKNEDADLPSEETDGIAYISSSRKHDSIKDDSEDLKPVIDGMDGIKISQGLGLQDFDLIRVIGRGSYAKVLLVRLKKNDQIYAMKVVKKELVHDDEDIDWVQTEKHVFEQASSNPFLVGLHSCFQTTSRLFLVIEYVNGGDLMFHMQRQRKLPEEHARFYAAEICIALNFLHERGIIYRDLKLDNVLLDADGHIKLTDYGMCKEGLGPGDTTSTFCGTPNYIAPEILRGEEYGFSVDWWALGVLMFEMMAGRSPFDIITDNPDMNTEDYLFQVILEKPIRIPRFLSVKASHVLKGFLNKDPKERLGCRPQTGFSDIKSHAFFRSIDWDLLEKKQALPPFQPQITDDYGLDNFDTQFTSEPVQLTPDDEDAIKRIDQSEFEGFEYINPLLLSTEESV
Summary of the method: as §1

EGFR (ErbB1) T790M L858R = target: T4, EGFR (ErbB1) T790M L858R (Homo sapiens, UniProt P00533, L858R/T790M)
T4 construct: purchased Thermo Fisher Scientific
Summary of the method: as §1

PI4KA (PI4K alpha) = target: T5, PI4KA (PI4K alpha) (Homo sapiens, UniProt P42356)
T5 construct: purchased Thermo Fisher Scientific
Summary of the method: as §1

ABL1 G250E = target: T6, ABL1 G250E (Homo sapiens, UniProt P00519, G250E)
T6 construct: purchased Thermo Fisher Scientific
Summary of the method: as §1

LRRK2 G2019S = target: T7, LRRK2 G2019S (Homo sapiens, UniProt Q5S007, G2019S)
T7 construct: purchased Thermo Fisher Scientific
Summary of the method: as §1

CDK5/p35 = target: T8, CDK5/p35 (Homo sapiens, UniProt Q00535)
T8 construct: purchased Thermo Fisher Scientific
Summary of the method: as §1

RPS6KA6 (RSK4) = target: T9, RPS6KA6 (RSK4) (Homo sapiens, UniProt Q9UK32)
T9 construct: purchased Thermo Fisher Scientific
Summary of the method: as §1

GSK3A (GSK3 alpha) = target: T10, GSK3A (GSK3 alpha) (Homo sapiens, UniProt P49840)
T10 construct: purchased Thermo Fisher Scientific
Summary of the method: as §1

CSNK1D (CK1 delta) = target: T11, CSNK1D (CK1 delta) (Homo sapiens, UniProt P48730)
T11 construct: purchased Thermo Fisher Scientific
Summary of the method: as §1

CDK17/cyclin Y = target: T12, CDK17/cyclin Y (Homo sapiens, UniProt Q00537)
T12 construct: purchased Thermo Fisher Scientific
Summary of the method: as §1

SGK2 = target: T13, SGK2 (Homo sapiens, UniProt Q9HBY8)
T13 construct: purchased Thermo Fisher Scientific
T13 sequence (Q9HBY8 1-367): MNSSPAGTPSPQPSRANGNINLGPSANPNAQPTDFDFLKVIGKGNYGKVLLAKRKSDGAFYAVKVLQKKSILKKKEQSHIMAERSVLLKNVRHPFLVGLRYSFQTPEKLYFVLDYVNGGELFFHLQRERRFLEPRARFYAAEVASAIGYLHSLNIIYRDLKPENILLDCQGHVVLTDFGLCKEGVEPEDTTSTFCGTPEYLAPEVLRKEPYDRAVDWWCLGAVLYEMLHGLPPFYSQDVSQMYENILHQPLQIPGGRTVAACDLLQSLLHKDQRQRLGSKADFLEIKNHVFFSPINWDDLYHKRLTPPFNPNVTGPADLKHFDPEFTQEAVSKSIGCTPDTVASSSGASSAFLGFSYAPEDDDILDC
Summary of the method: as §1

RPS6KA2 (RSK3) = target: T14, RPS6KA2 (RSK3) (Homo sapiens, UniProt Q15349)
T14 construct: purchased Thermo Fisher Scientific
Summary of the method: as §1

RPS6KA4 (MSK2) = target: T15, RPS6KA4 (MSK2) (Homo sapiens, UniProt O75676)
T15 construct: purchased Thermo Fisher Scientific
Summary of the method: as §1

T10 sequence (P49840 whole entry): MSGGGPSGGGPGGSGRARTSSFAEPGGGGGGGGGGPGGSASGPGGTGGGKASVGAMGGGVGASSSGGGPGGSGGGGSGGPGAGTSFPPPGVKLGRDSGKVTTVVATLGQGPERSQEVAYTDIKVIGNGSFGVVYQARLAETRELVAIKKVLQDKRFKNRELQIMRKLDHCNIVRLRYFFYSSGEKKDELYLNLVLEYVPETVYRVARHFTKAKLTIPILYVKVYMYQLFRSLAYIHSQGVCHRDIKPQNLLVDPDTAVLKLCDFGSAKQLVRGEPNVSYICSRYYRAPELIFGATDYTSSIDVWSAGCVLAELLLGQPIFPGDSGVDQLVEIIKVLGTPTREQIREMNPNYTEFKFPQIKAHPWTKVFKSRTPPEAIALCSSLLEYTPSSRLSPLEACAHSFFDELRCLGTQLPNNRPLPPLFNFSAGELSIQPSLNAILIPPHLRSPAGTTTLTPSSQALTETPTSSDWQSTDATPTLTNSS
T15 sequence (O75676 whole entry): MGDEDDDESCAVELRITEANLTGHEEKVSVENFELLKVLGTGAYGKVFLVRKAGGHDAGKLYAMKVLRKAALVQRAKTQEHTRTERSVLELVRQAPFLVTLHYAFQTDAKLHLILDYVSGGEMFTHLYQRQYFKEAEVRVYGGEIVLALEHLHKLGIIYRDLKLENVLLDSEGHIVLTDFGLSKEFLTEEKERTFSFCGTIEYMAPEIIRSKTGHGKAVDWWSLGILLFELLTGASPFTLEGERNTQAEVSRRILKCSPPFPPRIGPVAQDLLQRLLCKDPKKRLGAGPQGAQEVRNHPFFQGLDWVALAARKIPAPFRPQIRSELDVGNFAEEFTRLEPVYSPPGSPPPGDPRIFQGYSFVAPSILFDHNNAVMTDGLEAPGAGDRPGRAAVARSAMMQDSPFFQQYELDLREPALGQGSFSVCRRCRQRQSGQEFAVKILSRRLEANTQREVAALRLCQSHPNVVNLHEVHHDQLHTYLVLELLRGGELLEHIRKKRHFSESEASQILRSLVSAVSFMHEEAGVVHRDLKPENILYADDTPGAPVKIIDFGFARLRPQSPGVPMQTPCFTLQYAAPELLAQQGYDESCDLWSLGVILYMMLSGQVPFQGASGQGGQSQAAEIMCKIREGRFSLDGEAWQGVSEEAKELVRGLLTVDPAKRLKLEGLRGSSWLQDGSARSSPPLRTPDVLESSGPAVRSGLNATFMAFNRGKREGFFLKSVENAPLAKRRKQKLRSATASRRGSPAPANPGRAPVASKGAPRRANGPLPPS
T9 sequence (Q9UK32 whole entry): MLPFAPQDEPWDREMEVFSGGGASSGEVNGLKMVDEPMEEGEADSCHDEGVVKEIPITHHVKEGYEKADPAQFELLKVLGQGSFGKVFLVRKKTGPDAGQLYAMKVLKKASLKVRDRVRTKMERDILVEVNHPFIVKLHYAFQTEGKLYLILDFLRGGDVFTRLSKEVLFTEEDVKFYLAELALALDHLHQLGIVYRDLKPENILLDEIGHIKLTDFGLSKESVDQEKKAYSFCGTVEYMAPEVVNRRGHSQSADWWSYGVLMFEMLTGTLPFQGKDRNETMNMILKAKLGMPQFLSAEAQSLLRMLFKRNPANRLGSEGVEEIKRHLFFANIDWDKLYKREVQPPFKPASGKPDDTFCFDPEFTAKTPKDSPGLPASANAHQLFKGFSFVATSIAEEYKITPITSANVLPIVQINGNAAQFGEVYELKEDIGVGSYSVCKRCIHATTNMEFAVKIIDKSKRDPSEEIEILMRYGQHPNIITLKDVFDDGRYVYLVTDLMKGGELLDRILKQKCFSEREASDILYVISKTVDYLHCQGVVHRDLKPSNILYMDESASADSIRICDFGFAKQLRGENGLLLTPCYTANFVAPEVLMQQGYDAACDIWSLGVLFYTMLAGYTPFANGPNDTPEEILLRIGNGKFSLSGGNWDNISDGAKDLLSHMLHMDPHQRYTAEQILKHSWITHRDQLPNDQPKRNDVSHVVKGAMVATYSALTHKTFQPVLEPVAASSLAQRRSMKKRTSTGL
T14 sequence (Q15349 whole entry): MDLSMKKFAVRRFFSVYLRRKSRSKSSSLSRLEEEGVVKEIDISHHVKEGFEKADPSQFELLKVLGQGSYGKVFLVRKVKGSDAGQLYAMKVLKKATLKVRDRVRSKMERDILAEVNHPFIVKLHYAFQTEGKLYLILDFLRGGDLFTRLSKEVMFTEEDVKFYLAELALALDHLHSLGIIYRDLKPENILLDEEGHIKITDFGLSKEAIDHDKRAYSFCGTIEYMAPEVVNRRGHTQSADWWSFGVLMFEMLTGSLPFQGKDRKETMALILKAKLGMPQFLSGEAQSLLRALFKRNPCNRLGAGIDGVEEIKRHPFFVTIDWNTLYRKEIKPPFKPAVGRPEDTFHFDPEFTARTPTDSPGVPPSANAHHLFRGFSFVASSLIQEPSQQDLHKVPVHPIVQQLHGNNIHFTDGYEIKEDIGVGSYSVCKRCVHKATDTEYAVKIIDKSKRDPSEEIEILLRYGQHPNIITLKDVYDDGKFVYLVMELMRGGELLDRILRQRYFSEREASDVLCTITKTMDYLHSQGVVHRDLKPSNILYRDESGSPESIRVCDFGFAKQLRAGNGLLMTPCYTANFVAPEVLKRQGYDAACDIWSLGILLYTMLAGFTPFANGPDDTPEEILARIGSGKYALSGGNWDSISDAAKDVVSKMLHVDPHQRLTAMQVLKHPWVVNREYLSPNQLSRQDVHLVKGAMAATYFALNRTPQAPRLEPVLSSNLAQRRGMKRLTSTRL
T5 sequence (P42356 whole entry): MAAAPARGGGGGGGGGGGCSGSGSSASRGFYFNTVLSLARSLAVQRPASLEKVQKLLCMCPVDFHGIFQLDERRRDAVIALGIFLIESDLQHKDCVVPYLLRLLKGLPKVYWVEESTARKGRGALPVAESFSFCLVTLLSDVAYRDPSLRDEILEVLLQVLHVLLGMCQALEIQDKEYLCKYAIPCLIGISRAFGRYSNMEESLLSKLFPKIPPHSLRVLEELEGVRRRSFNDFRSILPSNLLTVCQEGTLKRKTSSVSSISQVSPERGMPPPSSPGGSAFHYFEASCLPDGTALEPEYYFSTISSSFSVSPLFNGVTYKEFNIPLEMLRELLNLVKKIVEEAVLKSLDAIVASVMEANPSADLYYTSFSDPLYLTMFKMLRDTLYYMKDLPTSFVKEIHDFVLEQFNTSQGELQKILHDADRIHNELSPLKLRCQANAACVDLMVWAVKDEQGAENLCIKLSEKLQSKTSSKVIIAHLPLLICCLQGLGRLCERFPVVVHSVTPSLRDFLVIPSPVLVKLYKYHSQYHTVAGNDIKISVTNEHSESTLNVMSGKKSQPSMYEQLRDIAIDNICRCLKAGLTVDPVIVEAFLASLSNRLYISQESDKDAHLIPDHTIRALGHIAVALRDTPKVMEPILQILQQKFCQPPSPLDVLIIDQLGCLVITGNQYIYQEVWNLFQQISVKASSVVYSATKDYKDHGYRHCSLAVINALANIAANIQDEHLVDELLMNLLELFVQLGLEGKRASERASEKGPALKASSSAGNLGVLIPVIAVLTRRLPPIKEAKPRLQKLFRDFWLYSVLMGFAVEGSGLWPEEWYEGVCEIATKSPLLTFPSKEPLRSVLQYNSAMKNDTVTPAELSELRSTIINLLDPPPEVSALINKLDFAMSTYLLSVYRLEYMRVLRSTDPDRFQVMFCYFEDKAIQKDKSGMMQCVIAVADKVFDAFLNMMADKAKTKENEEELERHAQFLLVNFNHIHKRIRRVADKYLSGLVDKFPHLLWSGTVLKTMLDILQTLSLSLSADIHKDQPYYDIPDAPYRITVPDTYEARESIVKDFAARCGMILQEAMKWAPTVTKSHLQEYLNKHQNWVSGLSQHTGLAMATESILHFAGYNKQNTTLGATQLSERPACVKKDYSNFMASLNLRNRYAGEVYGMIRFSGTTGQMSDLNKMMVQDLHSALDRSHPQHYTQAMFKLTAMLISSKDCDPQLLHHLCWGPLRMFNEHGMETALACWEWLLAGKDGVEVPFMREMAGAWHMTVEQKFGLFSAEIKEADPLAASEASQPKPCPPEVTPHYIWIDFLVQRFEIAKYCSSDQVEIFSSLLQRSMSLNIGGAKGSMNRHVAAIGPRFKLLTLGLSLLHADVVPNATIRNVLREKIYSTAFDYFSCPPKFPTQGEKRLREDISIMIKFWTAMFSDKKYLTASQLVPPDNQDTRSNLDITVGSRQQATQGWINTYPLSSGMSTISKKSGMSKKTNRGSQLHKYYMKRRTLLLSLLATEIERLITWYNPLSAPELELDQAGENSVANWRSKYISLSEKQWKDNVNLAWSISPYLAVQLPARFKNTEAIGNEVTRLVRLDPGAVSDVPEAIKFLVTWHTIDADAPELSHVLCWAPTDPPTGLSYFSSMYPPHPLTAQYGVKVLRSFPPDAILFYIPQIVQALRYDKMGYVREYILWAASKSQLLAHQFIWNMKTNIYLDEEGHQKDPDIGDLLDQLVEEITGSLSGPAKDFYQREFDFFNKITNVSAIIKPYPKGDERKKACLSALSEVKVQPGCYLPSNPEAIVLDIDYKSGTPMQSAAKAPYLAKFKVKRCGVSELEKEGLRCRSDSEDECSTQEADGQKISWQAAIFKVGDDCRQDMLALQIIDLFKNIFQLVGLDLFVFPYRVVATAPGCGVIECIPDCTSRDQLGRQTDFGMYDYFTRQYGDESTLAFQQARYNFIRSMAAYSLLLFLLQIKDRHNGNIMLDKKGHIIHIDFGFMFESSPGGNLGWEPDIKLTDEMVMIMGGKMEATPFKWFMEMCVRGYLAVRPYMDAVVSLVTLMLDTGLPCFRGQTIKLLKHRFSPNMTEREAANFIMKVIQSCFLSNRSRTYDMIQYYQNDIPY

SMILES | inhibition at 1 µM (FYN) [%] | inhibition at 10 µM (FYN) [%] | inhibition at 1 µM (RPS6KA3 (RSK2)) [%] | inhibition at 10 µM (RPS6KA3 (RSK2)) [%] | inhibition at 1 µM (PRKCZ (PKC zeta)) [%] | inhibition at 10 µM (PRKCZ (PKC zeta)) [%] | inhibition at 1 µM (EGFR (ErbB1) T790M L858R) [%] | inhibition at 10 µM (EGFR (ErbB1) T790M L858R) [%] | inhibition at 1 µM (PI4KA (PI4K alpha)) [%] | inhibition at 10 µM (PI4KA (PI4K alpha)) [%] | inhibition at 1 µM (ABL1 G250E) [%] | inhibition at 10 µM (ABL1 G250E) [%] | inhibition at 1 µM (LRRK2 G2019S) [%] | inhibition at 10 µM (LRRK2 G2019S) [%] | inhibition at 1 µM (CDK5/p35) [%] | inhibition at 10 µM (CDK5/p35) [%] | inhibition at 1 µM (RPS6KA6 (RSK4)) [%] | inhibition at 10 µM (RPS6KA6 (RSK4)) [%] | inhibition at 1 µM (GSK3A (GSK3 alpha)) [%] | inhibition at 10 µM (GSK3A (GSK3 alpha)) [%] | further results
COc1ccc2c(c1OC)c(=O)n1c3ccc(O)cc3c3ccnc2c31 [MW01, 5-Hydroxy-10,11-dimethoxy-9H-benzo[c]indolo[3,2,1-ij][1,5]naphthyridin-9-one] | 3 | 15 | 5 | 10 | 18 | 10 | 9 | 29 | 13 | 23 | 9 | 32 | 90 | 93 | 17 | 14 | 5 | 17 | 25 | 55 | inhibition at 1 µM (CSNK1D (CK1 delta)): 13%; inhibition at 10 µM (CSNK1D (CK1 delta)): 39%; inhibition at 1 µM (CDK17/cyclin Y): 3%; inhibition at 10 µM (CDK17/cyclin Y): 9%; inhibition at 1 µM (SGK2): 6%; inhibition at 10 µM (SGK2): 14%; inhibition at 1 µM (RPS6KA2 (RSK3)): 6%; inhibition at 10 µM (RPS6KA2 (RSK3)): 11%; inhibition at 1 µM (RPS6KA4 (MSK2)): 12%; inhibition at 10 µM (RPS6KA4 (MSK2)): 24%
COc1ccc2cc3c(N)nn(C(=O)c4cccc(N(C)C)c4)c3nc2c1 [MW05, (3-Amino-7-methoxypyrazolo[3,4-b]quinolin-1-yl)-[3-(dimethylamino)phenyl]methanone] | 4 | 5 | 3 | 2 | 16 | -4 | -5 | 10 | 1 | -1 | 12 | 0 | -2 | 16 | 5 | 7 | 2 | 4 | 3 | 18 | inhibition at 1 µM (CSNK1D (CK1 delta)): -1%; inhibition at 10 µM (CSNK1D (CK1 delta)): -1%; inhibition at 1 µM (CDK17/cyclin Y): 8%; inhibition at 10 µM (CDK17/cyclin Y): 21%; inhibition at 1 µM (SGK2): -3%; inhibition at 10 µM (SGK2): -11%; inhibition at 1 µM (RPS6KA2 (RSK3)): 5%; inhibition at 10 µM (RPS6KA2 (RSK3)): 6%; inhibition at 1 µM (RPS6KA4 (MSK2)): -3%; inhibition at 10 µM (RPS6KA4 (MSK2)): 4%
